This note sets out measurements from patent US20260176284A1, “Compounds with Anti-KRAS Mutated Tumor Activity” (Trasveda Ltd., priority 2022, published 2026).

Molecules are shown by their SMILES.

For data set [1], the system named is KRAS-G12D mutated human colon carcinoma cells GP2d. In words: Antitumor effect, subcutaneous xenograft of KRAS-G12D mutated human colon carcinoma cells GP2d. In kind it is in vivo. The note with it: BALB/c nude mice, 10 mg/kg, gavage, twice a day. Here is the method:
GP2d cells were purchased from Nanjing Kebai Biotechnology Co., Ltd. BALB/c nude mice, female, were purchased from Jiangsu GemPharmatech LLC. GP2d cells were cultured in culture medium containing DMEM and 10% FBS. The cells in the logarithmic growth phase were collected and resuspended in PBS to an appropriate concentration for subcutaneous tumor inoculation in mice. The experimental mice were subcutaneously inoculated on the right posterior side of the back. The inoculation dose of GP2d cells was 1×10^7 cells per mouse, and the cells were resuspended in a 1:1 mixture of PBS and Matrigel (the inoculation volume was 0.1 mL). When the average tumor volume grew to 150 mm^3, the mice were randomly grouped for administration according to the tumor size and body weight. Administration was started immediately after grouping, and the day of administration was regarded as day 0. The administration was carried out twice a day by gavage, at a dose of 10 mg/kg or a solvent control (0.5% Tween 80+99.5% of (0.5% MC (400 cp))). During the experiment, the body weight of the mice and the size of the tumors were measured twice a week.
The formula for calculating the tumor size: Tumor volume (mm^3)=0.5×(long diameter of tumor×(short diameter of tumor)^2).
Relative tumor inhibition rate TGI (%): TGI %=[1−(average tumor volume at the end of administration of the treatment group−average tumor volume at the beginning of administration of the treatment group)/(average tumor volume at the end of administration of the vehicle control group −average tumor volume at the beginning of administration of the vehicle control group)]×100%.
In general terms: In xenograft studies the graft and the host belong to different species.

The test system of a further data set is GP2D cells. In words: 3D proliferation inhibition of KRAS G12D mutated tumor cells, GP2D. The class given is cell-based, human. Particulars: Homo sapiens, GP2d, 3D methylcellulose culture, CTG, 120 hours. From the text: (§1) This experiment evaluated and verified the proliferation inhibitory activity of the representative compounds of the present invention against the following five strains of KRAS-related tumor cells.
(§2) The following materials, reagents and instruments were used in this experiment: Five strains of cells were all from Nanjing Kebai Biotechnology Co., Ltd. (GP2D, CBP60010; HPAC, CBP60539; AsPC-1, CBP60546; KP-4, CBP60541; Panc 04.03, CBP60683); DMEM (Gibco, 11965092); RPMI-1640 (Gibco, SH30809.01); HPAC complete medium (Cobioer, CBP60539M); Fetal bovine serum FBS (Gibco, 10091-148); Insulin (Gibco, 41400045); Methylcellulose (methylcellulose, Sigma, 9004-67-5); Phosphate-buffered saline DPBS (Comning, 21-031-CVC); CellTiter-Glo® Luminescent Cell Viability Assay (Promega, Cat #G7573); 96-well clear flat-bottom black-wall plate (Corning, 3603); EnVision multilabel plate reader (PerkinElmer #2105); CO2 incubator (Thermo Scientific, Model 3 71 Series).
(§3) A sterilized 1% methylcellulose 3D culture medium was prepared in advance. The cells in the logarithmic growth phase were harvested, and a Countstar automatic cell counter based on the principle of the classic trypan blue staining method was used for cell counting and detecting cell viability to ensure that the cell viability was above 90%. The cell concentrations of GP2D, HPAC, AsPC-1, KP-f4, and Panc 04.03 were adjusted so that the final concentration of methylcellulose was 0.65%, and the mixture was allowed to stand after being well-mixed. After there were no visible air bubbles in the cell suspension, 80 μL of the cell suspension was added to each well of a 96-well plate, with a total of 1000-2000 cells. The cells in the 96-well plate were cultured overnight at 37° C., 5% CO2, and 95% humidity.
(§4) Drug Preparation for IC50 Determination: First, a 10 mM DMSO stock solution of each compound was prepared. For the first dilution, using DMSO as the solvent, each compound was first diluted to 5 mM and then serially diluted 3-fold to obtain 9 concentrations, preparing DMSO solutions of each compound at different concentrations. For the second dilution, a 5-fold diluted solution of each compound was prepared by a 1:100 dilution, using the complete medium as the solvent. […]
(§5) The cells in the 96-well plate with the added drugs were further cultured at 37° C. and 5% CO2 for 120 hours, and then a CTG analysis was performed. […] The cell plate was placed at room temperature for 20 minutes to stabilize the luminescence signal. The luminescence value was read, and the data were collected.
(§6) The data were analyzed using GraphPad Prism 9.0 software. Non-linear S-curve regression was used to fit the data to obtain the dose-response curve, and the IC50 value (nM) was calculated accordingly. […]

For a further data set, the system named is HPAC cells. In words: 3D proliferation inhibition of KRAS G12D mutated tumor cells, HPAC. The class given is cell-based, human. The note with it: Homo sapiens, HPAC, 3D methylcellulose culture, CTG, 120 hours.
From the text: as §1, §2, §3, §4, §5, §6

The subject of another data set is AsPC-1 cells. In words: 3D proliferation inhibition of KRAS G12D mutated tumor cells, AsPC-1. Particulars: Homo sapiens, ASPC1, 3D methylcellulose culture, CTG, 120 hours. The class given is cell-based.
From the text: as §1, §2
A sterilized 1% methylcellulose 3D culture medium was prepared in advance. The cells in the logarithmic growth phase were harvested, and a Countstar automatic cell counter based on the principle of the classic trypan blue staining method was used for cell counting and detecting cell viability to ensure that the cell viability was above 90%. The cell concentrations of GP2D, HPAC, AsPC-1, KP-f4, and Panc 04.03 were adjusted so that the final concentration of methylcellulose was 0.65%, and the mixture was allowed to stand after being well-mixed. […]
as §5, §6

In the next data set the test system is KP-4 cells. In words: 3D proliferation inhibition of KRAS G12D mutated tumor cells, KP-4. The class given is cell-based. Particulars: Homo sapiens, KP-4, 3D methylcellulose culture, CTG, 120 hours.
From the text: as §1, §2, §3, §4, §5, §6

The test system of the next data set is Panc 04.03 cells. In words: 3D proliferation inhibition of KRAS G12D mutated tumor cells, Panc 04.03. The class given is cell-based. Particulars: Homo sapiens, Panc 04.03, 3D methylcellulose culture, CTG, 120 hours.
From the text: as §1, §2, §3, §4, §5, §6

Data set [2] relates to KRAS G12D mutated AGS human gastric adenocarcinoma cells. In words: Proliferation inhibition of KRAS G12D mutant AGS cells, another experiment with similar protocol (includes MRTX1133). Particulars: Homo sapiens. In kind it is cell-based. The procedure: In another experiment, using a protocol similar to the one described above, the inhibitory activity of some representative compounds of the present invention against KRAS G12D mutated AGS human gastric adenocarcinoma cells was determined.
The synthesis of compound MRTX1133 was performed according to the method described in J. Med. Chem. 2022, 65, 4, 3123-3133.

The nature of data set [3]: Mouse pharmacokinetics (IV and PO). The note with it: 10 mg/kg, male CD-1 mice, PO (gavage), 1 mg/mL at 10 mL/kg, plasma. The class given is in vivo. The procedure:
The pharmacokinetic properties of the compounds of the present invention were evaluated through a mouse pharmacokinetic experiment.
Male CD-1 mice, aged 6-8 weeks old, were purchased from Zhejiang Vital River Laboratory Animal Co., Ltd.
IV administration group: The compound was formulated into a sodium acetate buffer solution (10 mM sodium acetate solution, adjusted to pH 4.0 with acetic acid) containing 20% Captisol (sulfobutyl β-cyclodextrin) so that the final concentration of each compound was 0.6 mg/mL. The drug formulation was injected into the tail vein of CD-1 mice at an injection volume of 5 mL/kg. After administration, blood samples were collected from the submandibular vein or by other appropriate methods at 5 min, 15 min, 30 min, 1 h, 2 h, 4 h, 6 h, 8 h, and 24 h. The blood samples were centrifuged at a low temperature for 6 minutes, and the plasma was collected and stored at −80° C. for testing. The PO administration group formulated the compound into a solvent of 0.5% Tween 80+99.5% (0.5% MC (400 cp)) or 5% DMSO+95% (0.5% MC (400 cp)) so that the final concentration of each compound was 1 mg/mL. The drug formulation was administered to CD-1 mice by gavage at a volume of 10 mL/kg. After administration, blood samples were collected from the submandibular vein or by other appropriate methods at 15 min, 30 min, 1 h, 2 h, 4 h, 6 h, 8 h, and 24 h. The blood samples were centrifuged at a low temperature for 6 minutes, and the plasma was collected and stored at −80° C. for testing.
10 μL of the plasma sample was taken, and 200 μL of methanol containing an internal standard was added as a precipitating agent to precipitate plasma proteins and extract the compounds to be tested in the plasma. After centrifugation at a low temperature, 10 μL of the supernatant was injected, and the drug blood concentration was analyzed by LC-MS/MS. The pharmacokinetic parameters were calculated using Winnonlin based on the drug concentration data at different time points.

Data set [4] has as its system human pancreatic cancer cells HPAC (carrying KRas G12D mutant protein). In words: In vivo pharmacodynamics, subcutaneous xenograft of human pancreatic cancer cells HPAC. Particulars: NOD/SCID mice, 50 mpk, PO. The procedure: The following materials were used in this experiment: NOD/SCID mice, 6-8 weeks old, female, Jiangsu Ji Cai Yao Kang Biotechnology Co., Ltd.; HPAC cells (carrying KRas G12D mutant protein, ATCC); Captisol (Wuhan Fengyao Tonghui Chemical Products Co., Ltd., Cas #182410-00-0); Sodium acetate (aladdin); MC (sigma, 9004-67-5).
The experiment was carried out as follows: Female NOD/SCID mice aged 6-8 weeks were subcutaneously inoculated with 1-10^7 HPAC cells on the right posterior side of the back, with an inoculation volume of 0.1 mL. When the tumors grew to an average volume of 150 mm^3, the mice were randomly grouped for administration according to the tumor size and body weight. The day of administration was regarded as day 0. The administration was carried out once a day. The test compound was administered by tail vein injection or gavage, with 5 mice in each group at a dose of 10 mg/kg. The control group was administered with an equal volume of the solvent control by tail vein injection or gavage.
During the experiment, the tumor volume and body weight were measured twice a week. The formula for calculating the tumor volume was: Tumor volume (mm^3)=0.5×(tumor major axis×tumor minor axis^2). The average tumor inhibition rate TGI %=[(average tumor volume of the control group−average initial tumor volume of the control group)−(average tumor volume of the administration group−average initial tumor volume of the administration group)]/(average tumor volume of the control group−average initial tumor volume of the control group).

By IC50 is commonly meant the midpoint of a concentration-inhibition curve. A lower IC50 goes with higher potency. With `[2H]C([2H])([2H])N1CC[C@H](C(F)F)[C@](C)(C([2H])([2H])Oc2nc(N3CC4CCC(C3)N4)c3cc(C(F)(F)F)c(-c4cccc5sc(N)c(C#N)c45)c(F)c3n2)C1` (single isomer, unassigned) [Example 321-1], in data set [1], the “Tumor volume (mm3) (Day 21)” value amounted to 70 mm3. In addition, in data set [1] (Day 21), the “TGI (%)” value turned out to be 109%. In addition, the IC50 in the data set with GP2D cells was determined as 0.43 nM; in the data set on HPAC cells it was 5.38 nM; in the data set on AsPC-1 cells it was 1.38 nM; in the data set with KP-4 cells it was 4.74 nM; in the data set on Panc 04.03 cells, 1.36 nM.
As a reminder, the AUC(0-inf) is the area under the concentration-time curve extrapolated to infinity. What is called AUC(0-t) is exposure summed from dosing to a finite time, without extrapolation to infinity. As a reminder, the half-life is the time in which the quantity being followed falls by half. Low values mean fast loss, high ones slow loss. For the molecule `C#Cc1c(F)ccc2cc(O)cc(-c3ncc4c(N5C[C@H]6CC[C@@H](C5)N6)nc(OC[C@]5(C)CN(C)CC/C5=C\F)nc4c3F)c12` [Example 103, 4-(4-((1R,5S)-3,8-diazabicyclo[3.2.1]octan-3-yl)-8-fluoro-2-(((S,E)-4-(fluoromethylene)-1,3-dimethylpiperidin-3-yl)methoxy)pyrido[4,3-d]pyrimidin-7-yl)-5-ethynyl-6-fluoronaphthalen-2-ol], the IC50 in data set [2] came to 4 nM; in the data set on GP2D cells it was 0.42 nM; in the data set with HPAC cells, 1.44 nM; with AsPC-1 cells, 2.09 nM; with KP-4 cells, 6.92 nM; with Panc 04.03 cells it was 2.12 nM. In data set [3], this molecule registered an AUC(0-inf) of 704 ng·h/mL. Moreover, the AUC(0-t) in data set [3] turned out to be 653 ng·h/mL. The half-life in [3] is 489 min. Also, the “Tumor volume (mm3) (Day 20)” value in [4] (BID × 21) came to 77 mm3. Further, the “TGI (%)” value in data set [4] (BID × 21, Day 20) is given as 112%.
